Entries after “also recorded” stand apart in the source; their conditions may differ.
What was measured:
[1] = UV–Vis titration of ligands with Cu(ClO4)2, binding constant by non-linear regression; details: difference of stability constants
Method: To determine the overall equilibrium constant β1,2 (Kbind), a solution of the ligand was titrated with aliquots of 0.2 equivalents of Cu(II). Monitoring the formation of the complex via UV–Vis spectroscopy, the absorbance around 260 nm, 300 nm, 450 nm, and 700 nm increased during the titration (Figure 3a) in all cases. The latter two bands are visible only at high concentrations (>0.1 mM). These changes are caused by the formation of the complex and the disappearance of the free ligand.
In Figure 3b, the linear increase in the absorbance change (ΔAbs) at 240 nm, upon an increase in Cu(II) amount, is evident, leading to a sharp plateau around 2 equivalents. […] The binding constants were determined by non-linear regression analysis of Equation (2), (2) ∆A/b=(K1∆A1Cu+ β1,2∆A2Cu^2)/1+K1Cu+ β1,2Cu^2 which traces the correlation “ΔAbs/b vs. Cu(II) concentration,” according to K. Connors. In this equation, ΔA is the differences in absorbance at a certain wavelength, b is the optical path (1 cm), K1 is the constant for the formation of the complex 1:1, and β1,2 is the global formation constant (Kbind) for the complex 1:2. ΔA1 and ΔA2 are the differences in absorbance due to the formation of the 1:1 complex and the 1:2 complex, respectively. […]
UV-vis spectra of ligands and complexes were recorded in a quartz cuvette, with 1 cm of optical path. […]

β-amyloid 1–40 peptide = molecular target: T1, β-amyloid 1–40 peptide (Homo sapiens, UniProt P05067); test: Thioflavin T (ThT) fluorescence aggregation assay; format: biochemical; details: [ThT] = 10 μM; [β-amyloid 1–40] = 10 μM; 10 μM test substance; PBS pH 7.4, 37 °C
T1 construct: β-Amyloid (1–40) was purchased from GenScript; purchased GenScript (Leiden, the Netherlands)
T1 sequence (P05067 672-711 limits assumed): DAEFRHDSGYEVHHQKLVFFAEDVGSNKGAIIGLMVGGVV
Method: To evaluate the anti-aggregation ability of the complexes, the β-amyloid 1–40 peptide was selected due to its higher solubility and slower aggregation rate compared to the full-length Aβ 1–42. Aggregation experiments were conducted using the Thioflavin T (ThT) fluorescence assay, which is a standard method to monitor amyloid aggregation. ThT binds specifically to amyloid fibrils, causing an increase in fluorescence intensity. If a complex inhibits peptide aggregation, the observed fluorescence increase will be lower compared to the reference, indicating inhibition.
In this experiment, the amyloid peptide was first dissolved in 1,1,1,3,3,3-hexafluoro-2-propanol (HFIP) to facilitate its unfolding. A 0.2 mM solution of the peptide was then prepared in 10 mM PBS (containing 100 mM NaCl, pH 7.4). To this solution, equimolar amounts of ThT (prepared in the same buffer) and the complex (dissolved in methanol) were added.
Aggregation test: ThT method
Amyloid peptides Aβ1-40 were used for this analysis. […]
• For the measurement, fluorescence spectra were recorded with a plate reader, using a Tecan […]
The fluorescence of sample solutions was monitored at 37° C over a period of about 30 hours, acquiring values every 20 minutes. The fluorescence variation of ThT was compared in the presence/ absence of amyloid/ ligands/ complexes.

- inhibition of Aβ 1–40 aggregation (ThT fluorescence) (β-amyloid 1–40 peptide): moderate inhibition
SMILES: Cc1cc(CN(Cc2ccccn2)Cc2ccccn2)c(O)c(CN(Cc2ccccn2)Cc2ccccn2)c1 [HL-CH3, 2,6-bis[(bis(2-pyridylmethyl)amino)methyl]-4-methylphenol]
- binding preference for copper ions over Mn2+, Fe2+, Zn2+ [1]: almost three orders of magnitude; also recorded: approximately three orders of magnitude higher
